Assay results reported in PMC7070407, “Moringin, A Stable Isothiocyanate from Moringa oleifera, Activates the Somatosensory and Pain Receptor TRPA1 Channel In Vitro” (Molecules, 2020).

Legend:
[1] = system: not transfected HEK-293 cells; experiment: Effect on [Ca2+]i in not transfected HEK-293 cells (baseline); assay type: cell-based, human; details: AITC 100 μM
Description: Compound and extracts’ effects on intracellular Ca^2+ concentration ([Ca^2+]i) were determined using the selective intracellular fluorescent probe for Ca^2+ Fluo-4. Assay of rat TRPA1, TRPV2, TRPV3, TRPV4, TRPM8 or human TRPV1 mediated elevation of intracellular Ca^2+ in transfected HEK-293 cells are been performed as described. Briefly, human embryonic kidney (HEK-293) cells, stably transfected with rat TRPA1, TRPV2, TRPV3, TRPV4, TRPM8 or human TRPV1 (selected by Geneticin 600 μg mL^−1) or not transfected, were cultured in EMEM + 2 mM Glutamine + 1% Non-Essential Amino Acids (NEAA) + 10% FBS and maintained at 37 °C with 5% CO2. Stable transfections were checked by quantitative real-time polymerase chain reaction (PCR), quantitative real-time PCR was performed by an iCycler-iQ (Bio-Rad, Hercules, CA, USA) in a 20 μL reaction mixture containing the following: 10 μL iQ SYBR Green Supermix 2X (Bio-Rad), 20 ng of cDNA (calculated on the basis of the retro-transcribed RNA), and 330 nM for each primer. […] Cell fluorescence before and after the addition of various concentrations of test compounds and extracts were measured normalizing the effects against the response to ionomycin (4 µM). […] The potency of the compounds (EC50 values) are determined as the concentration required to produce half-maximal increases in [Ca^2+]i. […]

[2] = molecular target: T1, rat TRPA1 (Rattus norvegicus, UniProt Q6RI86); experiment: Elevation of intracellular Ca2+ (Fluo-4) in HEK-293 cells stably transfected with rat TRPA1; agonist and antagonist/desensitizing behaviour; assay type: cell-based; details: AP18 at 50 μM, 5 min pre-incubation, rTRPA1-HEK-293
T1 construct: expressed in transfected cells; host or cells: HEK-293
Description: Assay of rat TRPA1, TRPV2, TRPV3, TRPV4, TRPM8 or human TRPV1 mediated elevation of intracellular Ca^2+ in transfected HEK-293 cells are been performed as described. Briefly, human embryonic kidney (HEK-293) cells, stably transfected with rat TRPA1, TRPV2, TRPV3, TRPV4, TRPM8 or human TRPV1 (selected by Geneticin 600 μg mL^−1) or not transfected, were cultured in EMEM + 2 mM Glutamine + 1% Non-Essential Amino Acids (NEAA) + 10% FBS and maintained at 37 °C with 5% CO2. Stable transfections were checked by quantitative real-time polymerase chain reaction (PCR), quantitative real-time PCR was performed by an iCycler-iQ (Bio-Rad, Hercules, CA, USA) in a 20 μL reaction mixture containing the following: 10 μL iQ SYBR Green Supermix 2X (Bio-Rad), 20 ng of cDNA (calculated on the basis of the retro-transcribed RNA), and 330 nM for each primer. Optimized primers for SYBR Green analysis (and relative TaOpt) and optimum annealing temperatures were designed by Allele-Id software version 7.0 (Biosoft International, Palo Alto, CA, USA) and were synthesized (HPLC-purification grade) by MWG-Biotech AG (Ebersberg, Germany). Assays were performed in quadruplicate (maximal ΔCt of replicate samples, <0.5). Relative expression analysis, correct for PCR efficiency and normalized with respect to reference genes β-actin and glyceraldehyde 3-phosphate dehydrogenase, was performed by GENEX software (Bio-Rad). […] The day of the experiment the cells were loaded with Fluo-4 AM (4 μM in DMSO containing 0.02% Pluronic F-127) for 1 h in the dark at room temperature, rinsed and resuspended in Tyrode’s solution (145 mM NaCl, 2.5 mM KCl, 1.5 mM CaCl2, 1.2 mM MgCl2, 10 mM D-glucose, and 10 mM HEPES, pH 7.4), finally transferred to a quartz cuvette of a spectrofluorimeter (Perkin-Elmer LS50B; λEX = 488 nm, λEM = 516 nm) equipped with PTP-1 Fluorescence Peltier System (PerkinElmer Life and Analytical Sciences, Waltham, MA, USA) under continuous stirring. Cell fluorescence before and after the addition of various concentrations of test compounds and extracts were measured normalizing the effects against the response to ionomycin (4 µM). The values of the effect on [Ca^2+]i in HEK-293 cells not transfected are used as baseline and subtracted from the values obtained from transfected cells. […] The potency of the compounds (EC50 values) are determined as the concentration required to produce half-maximal increases in [Ca^2+]i. In TRPV3 assay TRPV3-expressing HEK293 cells were first sensitized with the structurally unrelated agonist 2-aminoethoxydiphenyl borate (100 μM). Antagonist/desensitizing behaviour is evaluated against the agonist of the TRP analyzed by adding the compounds directly in the quartz cuvette 5 min before stimulation of cells with the agonist. […] In order to assess functional antagonism of TRPA1 channels, AP18, 4-(4-chlorophenyl)-3-methyl-3-buten-2-one oxime […] Dose-response curve fitting (sigmoidal dose-response variable slope) and parameter estimation were performed with Graph-Pad Prism8® (GraphPad Software Inc., San Diego, CA, USA). All determinations were performed at least in triplicate.

T1 sequence (Q6RI86 whole entry): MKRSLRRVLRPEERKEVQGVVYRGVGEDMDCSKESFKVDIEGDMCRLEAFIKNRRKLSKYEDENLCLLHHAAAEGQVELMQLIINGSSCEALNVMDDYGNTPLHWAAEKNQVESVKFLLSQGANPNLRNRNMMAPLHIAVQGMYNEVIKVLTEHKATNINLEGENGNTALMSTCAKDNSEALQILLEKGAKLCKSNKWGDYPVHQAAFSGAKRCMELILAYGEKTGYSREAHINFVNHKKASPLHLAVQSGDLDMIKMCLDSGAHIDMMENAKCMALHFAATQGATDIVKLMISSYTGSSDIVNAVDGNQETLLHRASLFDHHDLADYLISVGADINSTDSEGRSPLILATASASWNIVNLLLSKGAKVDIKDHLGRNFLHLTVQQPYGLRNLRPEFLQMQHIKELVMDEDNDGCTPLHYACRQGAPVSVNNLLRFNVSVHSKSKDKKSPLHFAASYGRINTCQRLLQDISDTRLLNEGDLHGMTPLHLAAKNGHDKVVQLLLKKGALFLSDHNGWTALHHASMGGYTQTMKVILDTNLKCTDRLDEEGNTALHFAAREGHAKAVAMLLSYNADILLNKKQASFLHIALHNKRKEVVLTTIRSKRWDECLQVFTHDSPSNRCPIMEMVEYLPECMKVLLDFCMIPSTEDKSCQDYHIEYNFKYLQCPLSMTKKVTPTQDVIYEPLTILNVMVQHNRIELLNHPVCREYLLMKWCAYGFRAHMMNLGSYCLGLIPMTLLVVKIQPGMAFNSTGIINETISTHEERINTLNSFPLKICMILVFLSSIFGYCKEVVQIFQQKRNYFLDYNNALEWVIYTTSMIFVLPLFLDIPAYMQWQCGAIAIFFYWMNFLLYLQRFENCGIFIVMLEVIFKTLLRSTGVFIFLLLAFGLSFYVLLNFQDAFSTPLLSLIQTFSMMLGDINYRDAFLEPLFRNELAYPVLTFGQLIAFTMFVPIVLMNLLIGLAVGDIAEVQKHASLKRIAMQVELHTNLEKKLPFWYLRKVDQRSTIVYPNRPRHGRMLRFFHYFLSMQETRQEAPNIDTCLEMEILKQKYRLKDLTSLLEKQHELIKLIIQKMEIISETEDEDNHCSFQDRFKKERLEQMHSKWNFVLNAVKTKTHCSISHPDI

SMILES	Effect on not transfected HEK-293 cells [1]	Reduction of elevation of intracellular Ca2+ induced by AITC (100 μM) [2] [%]	Reduction of elevation of intracellular Ca2+ induced by moringin (10 μM) [2] [%]
C=CCN=C=S [AITC, Allylisothiocyanate, reference compound]	about 1%	–	–
CC(=Cc1ccc(Cl)cc1)C(C)=NO [AP18, 4-(4-chlorophenyl)-3-methyl-3-buten-2-one oxime, reference compound]	–	68.6 ± 3.0	64.1 ± 2.7
